Assay [1] has as its system LPS (from Escherichia coli O111:B4). As to the kind of experiment: LPS binding, BODIPY TR cadaverine (BC) probe displacement assay. To be noted: 20 μM to 100 μM peptide, 100 μg/mL LPS. The protocol:
The binding of each peptide at various concentrations to LPS was determined by the capability of displacing the BC probes bound with LPS. The fluorescent BC probe was used as a probe to determine the level of peptide bound with LPS. BC probe binds to native LPS and particularly target the lipid A portion. The fluorescent intensity of BC probe decreases as it binds to LPS. […] For instance, the LPS binding factor of samples containing 60 μM of CVK-PA was as double as the 40 μM sample.
The LPS binding affinity of peptide was examined with the BODIPY TR cadaverine (BC) fluorescent probe displacement assay as previously described. Stock solution of each peptide was diluted to predetermined concentrations with 10 mM HEPES buffer (pH=7.5, Thermo Fisher Scientific, Waltham, MA, USA). […] Followed by incubation for 15 minutes in room temperature, the fluorescent intensity was measured using a spectrophotometer at an excitation wavelength of 580 nm and an emission wavelength of 620 nm. Finally, the LPS binding factor of each sample was calculated using the equation: […]
When peptides bind to LPS and displace the BC probe, fluorescence intensity of the probe is increased. LPS binding affinity of each peptide was then analyzed by the fluorescent intensity of the displaced BC probe. […]

In the next assay the test system is MDR E. coli. The assay can be described thus: Bacterial membrane disruption by TEM of ultrathin sections. Type of assay: cell-based, multidrug-resistant E. coli (MDR E. coli). To be noted: 4 h. The protocol: TEM was used to reveal the damage in bacterial cell envelopes caused by ACA-PA treatment. Drug-resistant bacterial strains (MRSA and MDR E. coli) were exposed to ACA-PA at concentrations below (40 μM) and above (80 μM) the CMC, and ultrathin sections of the bacterial cultures were visualized by TEM.
The ACA-PA at a concentration lower than CMC seemed to only influenced the outer bacteria membrane, but were inadequate to disrupt the inner bacteria membranes.
Bacterial membrane disruption was observed from the ultrathin sectioned sample using TEM. […] After treatment with 80 μM ACA nanorods, bacterial cell membranes were severely damaged with complete cytoplasm leakage. […] On the damaged membranes, blisters appeared to originate from the pores. This explains the reason for the different antibacterial activity of ACA-PA on Gram-negative bacteria compared to the concentration-dependent toxicity on Gram-positive bacteria. The cell envelope of Gram-positive has a cytoplasmic membrane surrounded by a thick peptidoglycan layer with lipoteichoic acid. The antibacterial ACA-PA could penetrate the Gram-positive bacterial membrane by charge and hydrophobicity, although the PA were in a dispersed, non-assembled form. However, such dispersed PA were not able to penetrate the outer membrane of Gram-negative bacteria. […]

The text below walks through data of patent US12319752B2, “Heparin-binding cationic peptide self-assembling peptide amphiphiles useful against drug-resistant bacteria” (priority 2016, dated 2025).

Residues, ends and D or L forms follow the SMILES beside them. *: point of attachment. Palmitoyl = CCCCCCCCCCCCCCCC(=O)*

In the case of `CCCCCCCCCCCCCCCC(=O)N[C@H](C(=O)N[C@H](C(=O)N[C@H](C(=O)N[C@H](C(=O)N[C@@H](CCCCN)C(=O)N[C@@H](CCCCN)C(=O)N[C@@H](CCCCN)C(=O)N[C@@H](CCCCN)C(=O)NCC(=O)N[C@@H](C)C(=O)N[C@@H](CCCCN)C(=O)N[C@@H](CCCCN)C(=O)N[C@@H](C)C(=O)N[C@@H](CCCNC(=N)N)C(=O)N[C@@H](C)C(=O)N[C@@H](C)C(=O)N[C@@H](CCCCN)C(=O)N[C@@H](CCCCN)C(=O)N[C@@H](C)C(=O)N[C@@H](CCCNC(=N)N)C(=O)N[C@@H](C)C(=O)O)C(C)C)C(C)C)C(C)C)C(C)C` [ACA-PA, C16-V4K4G(AKKARA)2 (SEQ ID NO: 7)] (Palmitoyl-VVVVKKKKGAKKARAAKKARA-OH; N-terminus and C-terminus assumed), in assay [1], the LPS binding factor result was “highest LPS binding capability among the peptides investigated”. Besides, the “bacterial membrane disruption (TEM)” value in the assay with MDR E. coli (40 μM) is “blisters only on the outer cell walls”; in the assay on MDR E. coli (80 μM) it was “disrupted bacteria envelopes with loosened and disconnected membranous structures”.
